From patent US11739074B2, “Ras inhibitors” (Revolution Medicines, Inc., priority 2019, dated 2023)
Where two headings read alike, the source gives them in different places.

Experiments:
[1] = ester bond, 18-membered ring, EDCI/HOBt/DIEA, DCM, 25.0 °C
[2] = ester bond, EDCI/HOBt/DIPEA, DCM, 25.0 °C, 16.0 h
SW1573 = details: cited from earlier work
[3] = from CCn1c(-c2cccnc2[C@H](C)OC)c(CC(C)(C)CO)c2cc(-c3cc(C[C@H](NC(=O)OC(C)(C)C)C(=O)N4CCC[C@@H](C(=O)O)N4)cc(O[Si](C(C)C)(C(C)C)C(C)C)c3)ccc21, 15.3 mM

CCn1c(-c2cccnc2[C@H](C)OC)c2c3cc(ccc31)-c1cc(CF)cc(c1)C[C@H](NC(=O)OC(C)(C)C)C(=O)N1CCC[C@H](N1)C(=O)OCC(C)(C)C2
ring closure, isolated yield ([1]; from CCn1c(-c2cccnc2[C@H](C)OC)c(CC(C)(C)CO)c2cc(-c3cc(CF)cc(C[C@H](NC(=O)OC(C)(C)C)C(=O)N4CCC[C@@H](C(=O)O)N4)c3)ccc21, 23.7 mM): 65% | ring closure, yield of all isomers ([2]; from CCn1c(-c2cccnc2[C@H](C)OC)c(CC(C)(C)CO)c2cc(-c3cc(CF)cc(C[C@H](NC(=O)OC(C)(C)C)C(=O)N4CCC[C@@H](C(=O)O)N4)c3)ccc21, 23.73 mM): 65%

CCn1c(-c2cccnc2[C@H](C)OC)c2c3cc(ccc31)-c1cc(cc(C(F)F)c1)C[C@H](NC(=O)OC(C)(C)C)C(=O)N1CCC[C@H](N1)C(=O)OCC(C)(C)C2
ring closure, isolated yield ([1]; from CCn1c(-c2cccnc2[C@H](C)OC)c(CC(C)(C)CO)c2cc(-c3cc(C[C@H](NC(=O)OC(C)(C)C)C(=O)N4CCC[C@@H](C(=O)O)N4)cc(C(F)F)c3)ccc21, 21.0 mM): 71.6% | ring closure, yield of all isomers ([2]; from CCn1c(-c2cccnc2[C@H](C)OC)c(CC(C)(C)CO)c2cc(-c3cc(C[C@H](NC(=O)OC(C)(C)C)C(=O)N4CCC[C@@H](C(=O)O)N4)cc(C(F)F)c3)ccc21, 21.05 mM): 71.6%

CCn1c(-c2cccnc2[C@H](C)OC)c2c3cc(ccc31)-c1cc(cc(O[Si](C(C)C)(C(C)C)C(C)C)c1)C[C@H](NC(=O)OC(C)(C)C)C(=O)N1CCC[C@H](N1)C(=O)OCC(C)(C)C2
ring closure, isolated yield [1, 3]: 42% | ring closure, yield of all isomers [2, 3]: 42%

C=CC(=O)N1CCN(c2nc(=O)n(-c3c(C)ccnc3C(C)C)c3nc(-c4c(O)cccc4F)c(F)cc23)[C@@H](C)C1 [AMG510]
sensitivity of cell line SW1573 to inhibitor (SW1573): insensitive
